Assay results from patent US20150004617A1, “DNA Polymerase Activity Assays and Methods Enabling Determination of Viable Microbes” (Zeus Scientific, Inc., priority 2012, published 2015).

What was measured:
DNA polymerase I = target: T1, DNA polymerase I (Escherichia coli, UniProt P00582); experiment: DPE-PCR assay with purified DNA polymerase, ddCTP termination; assay type: biochemical; conditions: dNTP mix with 50 μM ddCTP instead of 50 μM dCTP; 2×10^−9 U DNA polymerase I; 37° C., 20 minutes
T1 construct: purchased New England Biolabs M0209
T1 sequence (P00582 whole entry): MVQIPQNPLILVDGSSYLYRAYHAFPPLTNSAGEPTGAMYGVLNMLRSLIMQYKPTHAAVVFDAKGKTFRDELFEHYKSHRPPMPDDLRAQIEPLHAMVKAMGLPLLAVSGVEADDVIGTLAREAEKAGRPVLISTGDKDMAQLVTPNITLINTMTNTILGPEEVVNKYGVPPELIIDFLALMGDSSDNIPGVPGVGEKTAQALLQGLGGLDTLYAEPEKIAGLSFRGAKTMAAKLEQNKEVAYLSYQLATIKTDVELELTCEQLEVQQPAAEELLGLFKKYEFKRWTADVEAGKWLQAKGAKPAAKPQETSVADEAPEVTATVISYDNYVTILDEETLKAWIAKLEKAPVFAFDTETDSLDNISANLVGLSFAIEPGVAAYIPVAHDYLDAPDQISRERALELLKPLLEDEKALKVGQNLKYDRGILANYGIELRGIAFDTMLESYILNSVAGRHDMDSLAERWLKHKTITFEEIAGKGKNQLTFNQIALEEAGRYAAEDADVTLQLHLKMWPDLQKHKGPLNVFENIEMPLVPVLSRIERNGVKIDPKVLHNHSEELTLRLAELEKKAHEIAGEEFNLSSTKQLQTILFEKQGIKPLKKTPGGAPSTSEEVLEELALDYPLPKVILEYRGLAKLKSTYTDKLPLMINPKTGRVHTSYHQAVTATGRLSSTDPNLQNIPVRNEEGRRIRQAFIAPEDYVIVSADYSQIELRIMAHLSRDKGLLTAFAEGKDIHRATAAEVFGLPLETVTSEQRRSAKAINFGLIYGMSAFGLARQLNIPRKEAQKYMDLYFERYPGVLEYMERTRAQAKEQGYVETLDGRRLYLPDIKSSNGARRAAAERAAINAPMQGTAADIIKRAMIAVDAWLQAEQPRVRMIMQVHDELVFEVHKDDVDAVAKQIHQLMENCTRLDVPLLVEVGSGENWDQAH
Protocol: DNA Pol I (NEB cat #M0209L), Klenow (NEB cat #M0210S) and Klenow exo(−) (NEB cat #M0212S) were diluted to the indicated U/μL stock in Tris EDTA (T.E.) pH 8.0. To begin, 2 μL of DNA polymerase stock at each concentration were placed into a 50 μL polymerase assay mixture containing the following components: 50 μM dNTP, 20 mM Tris pH 8.0, 10 mM ammonium sulfate, 10 mM potassium chloride, 2 mM magnesium sulfate, 1% BSA, 0.1% Triton, 0.1% Tween, and 0.001 μM pre-annealed DNA substrate. Reactions were vortexed briefly and placed at 37° C. for 20 minutes. After 20 minutes, 3 μL of each reaction were immediately placed into a quantitative PCR (qPCR) reaction. Detection by qPCR
The qPCR reaction master mix was prepared using the following components: LightCycler 480 Master Mix (Roche cat #04707494001), 333 nM of each primer, 166 nM Target probe (FAM), 166 nM internal control probe (TxRed), and 1.2 U of UDG (Bioline cat #BIO-20744). As a tool to monitor PCR inhibition, each qPCR reaction also included 40 copies of competitive internal control DNA. […]

[1] = tested on: E. coli-derived DNA polymerase activity; experiment: Bead lysis-coupled DPE-PCR, ddCTP termination of microbial DNA polymerase (E. coli); assay type: biochemical, Escherichia coli; conditions: reaction mix with 50 μM ddCTP instead of dCTP; crude bead mill lysate
Protocol: The qPCR reaction master mix was prepared using the following components: LightCycler 480 Master Mix (Roche cat #04707494001), 333 nM of each primer, 166 nM Target probe (FAM), 166 nM internal control probe (TxRed), and 1.2 U of UDG (Bioline cat #BIO-20744). As a tool to monitor PCR inhibition, each qPCR reaction also included 40 copies of competitive internal control DNA. For each qPCR reaction, 3 μL of DNA polymerase reaction were added to 27 μL of master mix and a two-step qPCR was run on a SmartCycler (Cepheid, Sunnyvale Calif.) as follows: Initial incubation of 40° C. for 10 minutes and 50° C. for 10 minutes and at 95° C. for 5 minutes (to activate Taq), followed by 45 cycles of 5 s denaturation at 95° C. and 20 s annealing/extension at 65° C. Cycle threshold (Ct) values were generated automatically by the SmartCycler software using 2nd derivative analysis of the emerging qPCR curves.
S. aureus and E. coli cultures were grown to an OD600 of 1.0±0.2 (approximately 1×10^9 cfu/mL.) For each organism, 1 mL of culture was pelleted and washed three times in T.E. Bacterial suspensions were serially diluted in T.E., and 5 μL of each stock were added to bead lysis-reactions containing 50 μL of lysis-reaction buffer. […]

**Q.** How did the “DPE-PCR assay signal (DNA polymerase extension activity)” value (DNA polymerase I) turn out when `Nc1ccn([C@H]2CC[C@@H](COP(=O)(O)OP(=O)(O)OP(=O)(O)O)O2)c(=O)n1` [ddCTP, dideoxyCTP] was run?
**A.** Its value is “eliminates signal generated by DNA polymerase I”.

**Q.** And the “DPE-PCR signal derived from E. coli cfu spikes” value [1]?
**A.** The value was “blocked the generation of signal derived from E. coli cfu spikes”.
